# Assay results reported in US12473283B2, “Compounds and their use” (Debiopharm International S.A., priority 2019, dated 2025).
# pIC50: −log10 of the molar value. Read-outs that look alike come from different tables or passages of the source.
# What was measured:
# E. coli AG100 = test: Broth microdilution MIC assay; type: cell-based; details: Escherichia coli, CA-MHB, 35° C., 20 hours
# Description: (§1) The antibacterial activity of FabI inhibitors against select Gram-negative and Gram-positive bacterial species including susceptible and multi-drug resistant A. baumannii, E. coli, K. pneumoniae and S. aureus was tested using the broth microdilution Minimal Inhibitory Concentration (MIC) assay following CLSI guidelines for insoluble compounds. Test articles were serially diluted 2-fold in 100% dimethyl sulfoxide (DMSO) and then diluted 100-fold into cation adjusted Mueller-Hinton broth (CA-MHB) to achieve a 10-point test concentration range in 1% DMSO. Final compound concentrations were 0.016-8 μg/ml for S. aureus or 0.06-32 μg/ml for the Gram-negative species. MIC test plates were then prepared by transferring 100 μl of the final assay medium (test article in CA-MHB, 1% DMSO) into the appropriate wells of a sterile, low binding 96-well polystyrene plate. Direct colony suspension inoculums of the test strains were freshly prepared per CLSI guidelines, and the appropriate test wells were inoculated to achieve a final bacterial cell density of 5×10^5 CFU/ml. Growth control (no test article) and negative control (no bacterial inoculum) wells were also included. Exposure to light was minimized during all stages of assay preparation. […] Bacterial growth was then determined by measuring the optical density at 600 nm (OD600) using a SpectraMax Plus plate-reader spectrophotometer.
# K. pneumoniae A6030827 = test: Broth microdilution MIC assay; type: cell-based; details: Klebsiella pneumoniae, CA-MHB, 35° C., 20 hours
# Description: as §1
# [1] = test system: A. baumannii ATCC BAA1605; test: Broth microdilution MIC assay; type: cell-based; details: Acinetobacter baumannii, ATCCBAA1605; CA-MHB, 35° C., 20 hours
# Description: as §1
# S. aureus ATCC 29213 = test: Broth microdilution MIC assay; type: cell-based; details: Staphylococcus aureus, ATCC29213; CA-MHB, 35° C., 20 hours
# Description: as §1
# [2] = molecular target: FabI enzyme from Acinetobacter baumannii (Acinetobacter baumannii, UniProt D0CAD5); test: Inhibition of FabI enzyme, rate of NADH consumption; type: biochemical
# FabI enzyme from Acinetobacter baumannii, sequence (D0CAD5 entry or part of it): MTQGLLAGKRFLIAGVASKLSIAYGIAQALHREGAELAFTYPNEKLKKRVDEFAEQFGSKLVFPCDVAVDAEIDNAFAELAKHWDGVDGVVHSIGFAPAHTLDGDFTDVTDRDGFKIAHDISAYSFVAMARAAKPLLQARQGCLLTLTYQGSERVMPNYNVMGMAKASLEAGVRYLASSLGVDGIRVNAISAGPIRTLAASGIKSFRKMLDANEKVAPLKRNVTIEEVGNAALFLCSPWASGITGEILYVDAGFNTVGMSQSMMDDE
# Description: (§2) Inhibition of FabI enzyme from Acinetobacter baumannii and Escherichia coli was tested by measuring the rate of NADH consumption (Δabsorbance at 340 nm/min) at 30° C. in 96-well plate format using an automated plate reader in the presence or absence of the test compounds. The assay mixture contained 100 mM Tris-HCl, pH 7.25 (A. baumannii) or 7.5 (E. coli), 100 mM ammonium acetate, 0.02% (A. baumannii) or 0.05% (E. coli) Pluronic F-68, 25 μM crotonyl ACP, 50 μM NADH, 25 pM (A. baumannii) or 50 pM (E. coli) recombinant FabI protein, and 7.5% DMSO. Test compounds were added at concentrations ranging from 0.17 to 10,000 nM in a final well volume of 100 μl. This dose-response inhibitory assay was performed using a 10-point, serial dilution series for each test compound. IC50 values for each test compound were assigned from logistical sigmoid curve-fitting of the inhibition dose response curves.
# [3] = molecular target: FabI enzyme from Escherichia coli (Escherichia coli, UniProt P0AEK4); test: as above; type: biochemical
# FabI enzyme from Escherichia coli, sequence (P0AEK4 whole entry): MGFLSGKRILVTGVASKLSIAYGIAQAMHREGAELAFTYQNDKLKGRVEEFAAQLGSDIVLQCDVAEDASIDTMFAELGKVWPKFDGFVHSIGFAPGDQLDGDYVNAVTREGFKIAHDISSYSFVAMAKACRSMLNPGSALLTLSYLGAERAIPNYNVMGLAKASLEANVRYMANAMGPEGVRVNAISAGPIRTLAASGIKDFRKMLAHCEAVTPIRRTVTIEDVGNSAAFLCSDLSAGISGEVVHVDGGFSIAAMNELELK
# Description: as §2
# [4] = recombinant FabI, 30° C., pH 7.25, read-out: A. baumannii Fabl IC50
# [5] = recombinant FabI, 30° C., pH 7.5, read-out: E. coli Fabl IC50
SMILES,MIC (E. coli AG100) [µg/mL],MIC (K. pneumoniae A6030827) [µg/mL],MIC [1] [µg/mL],MIC (S. aureus ATCC 29213) [µg/mL],"pIC50 [2, 4]","pIC50 [3, 5]",pIC50 [2],pIC50 [3]
"Cc1c(CN(C)C(=O)/C=C/c2cnc3c(c2)CCC(N2CCS(=O)(=O)CC2)C(=O)N3)oc2ccccc12 (stereo not drawn) [Compound 179, (E)-3-(7-(1,1-dioxidothiomorpholino)-8-oxo-6,7,8,9-tetrahydro-5H-pyrido[2,3-b]azepin-3-yl)-N-methyl-N-((3-methylbenzofuran-2-yl)methyl)acrylamide]",8,8,≤ 4,≤ 4,> 8.00,,,
"Cc1c(CN(C)C(=O)C=Cc2cnc3c(c2)CCC(N)C(=O)N3)oc2cccc(OC3CCC(N)CC3)c12 (single isomer, unassigned) [Compound 86]",≤ 4,≤ 4,≤ 4,≤ 4,> 8.00,,,
"Cc1oc2ccccc2c1CN(C)C(=O)/C=C/c1cnc2c(c1)NC[C@H](N1CC3(COC3)C1)C(=O)N2 (single isomer, unassigned) [Compound 35]",,,≤ 4,≤ 4,> 8.00,> 8.00,,
"Cc1c(CN(C)C(=O)/C=C/c2cnc3c(c2)CC[C@H](N2CC4(COC4)C2)C(=O)N3)oc2ccccc12 (single isomer, unassigned) [Compound 190]",≤ 4,≤ 4,≤ 4,≤ 4,> 8.00,> 8.00,,
"Cc1c(CN(C)C(=O)/C=C/c2cnc3c(c2)CCC(N2CC4(CCOCC4)C2)C(=O)N3)oc2ccccc12 (stereo not drawn) [Compound 176, (E)-N-methyl-N-((3-methylbenzofuran-2-yl)methyl)-3-(8-oxo-7-(7-oxa-2-azaspiro[3.5]nonan-2-yl)-6,7,8,9-tetrahydro-5H-pyrido[2,3-b]azepin-3-yl)acrylamide]",≤ 4,≤ 4,≤ 4,≤ 4,> 8.00,,,
"Cc1c(CN(C)C(=O)/C=C/c2cnc3c(c2)CCC(N)C(=O)N3)oc2c(Cl)cccc12.O=C(O)C(F)(F)F (stereo not drawn) [Compound 92, (E)-3-(7-amino-8-oxo-6,7,8,9-tetrahydro-5H-pyrido[2,3-b]azepin-3-yl)-N-((7-chloro-3-methylbenzofuran-2-yl)methyl)-N-methylacrylamide 2,2,2-trifluoroacetate]",≤ 4,≤ 4,8,≤ 4,,,> 8.00,
"Cc1c(CN(C)C(=O)/C=C/c2cnc3c(c2)CCC(N(C)C)C(=O)N3)oc2ccccc12 (stereo not drawn) [Compound 95, (E)-3-(7-(dimethylamino)-8-oxo-6,7,8,9-tetrahydro-5H-pyrido[2,3-b]azepin-3-yl)-N-methyl-N-((3-methylbenzofuran-2-yl)methyl)acrylamide]",≤ 4,≤ 4,≤ 4,≤ 4,> 8.00,,,
"Cc1c(CN(C)C(=O)/C=C/c2cnc3c(c2)CC[C@H](N(C)C)C(=O)N3)oc2ccccc12 (single isomer, unassigned) [Compound 96]",8,≤ 4,≤ 4,≤ 4,> 8.00,,,
"Cc1c(CN(C)C(=O)/C=C/c2cnc3c(c2)CC[C@H](N)C(=O)N3)sc2ccccc12.Cl (single isomer, unassigned) [Compound 119, hydrochloride]",,,,,,,> 8.00,> 8.00
"Cc1oc2ccccc2c1CN(C)C(=O)/C=C/c1cnc2c(c1)CCC(N1CCOCC1)C(=O)N2 (stereo not drawn) [Compound 173, (E)-N-methyl-N-((2-methylbenzofuran-3-yl)methyl)-3-(7-morpholino-8-oxo-6,7,8,9-tetrahydro-5H-pyrido[2,3-b]azepin-3-yl)acrylamide]",,,≤ 4,≤ 4,> 8.00,> 8.00,,
"Cc1c(CN(C)C(=O)/C=C/c2cnc3c(c2)CC[C@H](N)C(=O)N3)oc2ccccc12.Cl (single isomer, unassigned) [Compound 71, hydrochloride]",,,,,,,> 8.00,> 8.00
"Cc1c(CN(C)C(=O)/C=C/c2cnc3c(c2)CC[C@H](N2CCOCC2)C(=O)N3)oc2c(F)cccc12 (single isomer, unassigned) [Compound 113]",8,≤ 4,≤ 4,≤ 4,> 8.00,,,
"Cc1oc2c(N)cccc2c1CN(C)C(=O)/C=C/c1cnc2c(c1)CC[C@H](N)C(=O)N2 (single isomer, unassigned) [Compound 193]",≤ 4,,≤ 4,≤ 4,,> 8.00,,
"Cc1oc2c(N)cccc2c1CN(C)C(=O)/C=C/c1cnc2c(c1)CCC(N1CCCC1)C(=O)N2 (stereo not drawn) [Compound 191, (E)-N-((7-amino-2-methylbenzofuran-3-yl)methyl)-N-methyl-3-(8-oxo-7-(pyrrolidin-1-yl)-6,7,8,9-tetrahydro-5H-pyrido[2,3-b]azepin-3-yl)acrylamide]",8,,≤ 4,≤ 4,,> 8.00,,
"Cc1oc2ccccc2c1CN(C)C(=O)/C=C/c1cnc2c(c1)CCC(N)C(=O)N2.Cl (stereo not drawn) [Compound 94, (E)-3-(7-amino-8-oxo-6,7,8,9-tetrahydro-5H-pyrido[2,3-b]azepin-3-yl)-N-methyl-N-((2-methylbenzofuran-3-yl)methyl)acrylamide hydrochloride]",16,≤ 4,≤ 4,≤ 4,,,> 8.00,
"Cc1c(CN(C)C(=O)/C=C/c2cnc3c(c2)CC[C@H](N2CC(O)C2)C(=O)N3)oc2ccccc12 (single isomer, unassigned) [Compound 171]",≤ 4,≤ 4,≤ 4,≤ 4,> 8.00,,,
"Cc1c(CN(C)C(=O)/C=C/c2cnc3c(c2)NC[C@H](N)C(=O)N3)oc2ccccc12 [Compound 8, (S,E)-3-(3-amino-4-oxo-2,3,4,5-tetrahydro-1H-pyrido[2,3-b][1,4]diazepin-8-yl)-N-methyl-N-((3-methylbenzofuran-2-yl)methyl)acrylamide]",≤ 4,≤ 4,≤ 4,≤ 4,> 8.00,> 8.00,,
"Cc1c(CN(C)C(=O)/C=C/c2cnc3c(c2)NC[C@@H](N2C[C@@H](C)O[C@@H](C)C2)C(=O)N3)oc2ccccc12 (single isomer, unassigned) [Compound 21]",,16,≤ 4,≤ 4,,> 8.00,,
"Cc1c(CN(C)C(=O)/C=C/c2cnc3c(c2)CCC(N2CCCC2)C(=O)N3)oc2ccccc12 (stereo not drawn) [Compound 182, (E)-N-methyl-N-((3-methylbenzofuran-2-yl)methyl)-3-(8-oxo-7-(pyrrolidin-1-yl)-6,7,8,9-tetrahydro-5H-pyrido[2,3-b]azepin-3-yl)acrylamide]",≤ 4,≤ 4,≤ 4,≤ 4,> 8.00,> 8.00,,
